Source: patent US6509377B1, “Use of a 2-hydroxy-4-trifluoromethylbenzoic acid derivatives as inhibitors of the activation of the nuclear transcription factor NF-κB” (J. Uriach & Cia, S.A., priority 1999, dated 2003)

Key:
[1] = test system: β-actin; assay: Expression of β-actin mRNA in HUVEC (RT-PCR, constitutive control gene); format: cell-based, human; details: 4 mM
Text: Primers used for the detection of VCAM-1 mRNA by RT-PCR were designed from the human gene sequence (EMBUGenBank AC: M30257), using the Wisconsin Package Version 9.1, Genetics Computer Group (GCG), Madison, Wis. Their sequences were 5′-TGTCACTGTMGCTGCMG-3′ and 5′-TTCCAGCCTGGTTAATTC-3′, corresponding to nucleotides 1090-1108 and 1589-1572 (L. Osbom et al., Cell 1989, 59(6), 1203-1211). Total RNA was extracted from cultured cells using the guanidium isothiocyanate method (P. Chomczynski and N. Sacchi, Anal Biochem. 1987, 162(1), 156-159). cDNA first strand was synthesized from total RNA by reverse transcription reaction. […] The relative amounts of each amplified cDNA were determined by measuring the density of the bands stained with ethidium bromide using the Gel Doc documentation system and the Molecular Analyst software from Bio-Rad Laboratories, Hercules, Calif. […]
Specifically, the effect of Triflusal (4 mM) and HTB (4 mM) on the regulation of the expression of VCAM-1 mRNA induced by TNF-α (100 U/ml) in HUVEC was studied. […] The PCR products were separated by electrophoresis in a 1.8% agarose gel and were later quantified. The molecular weight of the amplification products was determined from the electrophoretic migration of DNA size standards.

[2] = test system: NF-κB; assay: Activation of NF-κB induced by TNF-α in HUVEC (EMSA); format: cell-based, human; details: 2 and 4 mM, TNF-α 100 U/ml, 90 minutes
Experimental: Human umbilical vein endothelial cells (HUVEC) were obtained by the procedure of Dejana et al. (J. Cell Biol 1987, 104(5), 1403-1411) by treatment of the umbilical vein with. 0.2% collagenase P from C. histolyticum (Boehnnger Manheim GmbH, Manheim, Germany) for 20 minutes at 37° C. Next, cells were cultured in M199 medium (Flow Lab, Herts, U.K.) containing 100 U/ml penicillin, 100 μg/ml streptomycin, 2.5 μg/ml amphotercin B and 20% fetal calf serum. Primary cultures were plated in 25 cm^2 plastic flasks. After 24 hours cells were washed to remove those cells which had not adhered to the flask surface. Then, the same medium containing 10% fetal calf serum, 50 μg/ml endothelial cell growth supplement factor and 100 μg/ml heparn was added. After culturing for 5-7 days, cells reached confluence and were detached from the flask surface with 0.05% trypsin and 0.02% EDTA (Flow Lab). The reaction was inhibited by the addition of fetal calf serum, and then cells were washed and plated again in culture medium. Cells were grown to confluence in gelatin-coated flasks. Cells used for the experiments were from passages 2-7.
In this experiment, HUVEC cells were preincubated with Triflusal and HTB, at concentrations in both cases of 2 and 4 mM. Then these cells were stimulated with 100 U/ml TNF-α (Genzyme Diagnostics, Cambridge, Mass. USA) for 90 minutes. […]

SMILES | effect on the expression of β-actin mRNA [1] | inhibition of the activation of NF-κB induced by TNF-α [2]
O=C(O)c1ccc(C(F)(F)F)cc1O [HTB, 2-hydroxy-4-trifluoromethylbenzoic acid] | absence of effect | concentration-dependently inhibit
CC(=O)Oc1cc(C(F)(F)F)ccc1C(=O)O [triflusal, 2-Acetyloxy-4-trifluoromethylbenzoic acid, reference compound] | absence of effect | concentration-dependently inhibit
